From patent US11535590B2, “Sulfonium salt photoinitiator, preparation method therefor, photocurable composition comprising sulfonium salt photoinitiator, and use thereof” (CHANGZHOU TRONLY NEW ELECTRONIC MATERIALS CO., LTD., priority 2017, dated 2022)
Read-outs that look alike come from different tables or passages of the source.

Assay: Evaluation of solubilities of photoinitiators in cationic active diluents
Format: physicochemical
Conditions: for Solubility in DOX: diluent DOX: 3,3′-[oxybismethylene]bis[3-ethyl] oxetane; for Solubility in DVE-3: diluent DVE-3: triethyleneglycol divinyl ether; for Solubility in Epoxy resin 6110: diluent Epoxy resin 6110: 3.4-epoxycyclohexylmethyl-3,4-epoxycyclohexyl carboxylate
[1] = diluent POX: 3-ethyl-3-(phenoxymethyl) oxetane

| Compound | Solubility in DOX [%] | Solubility in DVE-3 [%] | Solubility in Epoxy resin 6110 [%] | Solubility in POX [1] [%] | Solubility in POX [%] |
| --- | --- | --- | --- | --- | --- |
| COC(=O)C(=O)c1ccc(Sc2ccc([S+](c3ccc(Sc4ccc(C(=O)C(=O)OC)cc4)cc3)c3ccc(Sc4ccc(C(=O)C(=O)OC)cc4)cc3)cc2)cc1 [Compound 1] | >10 | >10 | >10 | >10 |  |
| CCOC(=O)C(=O)c1ccc(Oc2ccc([S+](c3ccccc3)c3ccccc3)cc2)cc1 [Compound 2] | >10 | >10 | >10 | >10 |  |
| CCOC(=O)C(=O)c1ccc(Oc2ccc([S+](c3ccc(C)cc3)c3ccc(C)cc3)cc2)cc1 [Compound 7] | >10 | >10 | >10 | >10 |  |
| [F][Sb-]([F])([F])([F])([F])[F].[F][Sb-]([F])([F])([F])([F])[F].c1ccc([S+](c2ccccc2)c2ccc(Sc3ccc([S+](c4ccccc4)c4ccccc4)cc3)cc2)cc1 [UVI6976, bis(4,4′-thioethertriphenylsulfonium) hexafluoroantimonate, reference compound] | <2 | <2 | <2 |  | <2 |
| phenylthiophenyl diphenylsulfonium hexafluoroantimonate [UVI6992, reference compound] | <2 | <2 | <2 | <2 |  |
